The IC50 is the concentration at which inhibition is half-maximal.

Some results are limits rather than exact numbers.

From patent US20250136570A1 (Tango Therapeutics, Inc., priority 2021, published 2025) come the findings set out here.

For one experiment, the target named is Recombinant HDAC1 (Homo sapiens (Human), UniProt Q13547). In words: HDAC1 inhibition, Fluor de Lys fluorescent enzyme assay. Particulars: 3 hours pre-incubation at room temp; 6 nM enzyme; 16 μM Fluor de Lys substrate; duplicate. Type of experiment: biochemical. The gist of the method:
(§1)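 Enzyme (HDAC1 6 nM, HDAC3/NCor2 1.2 nM final) pre-incubated with compound 3 h at ~22 °C in Tris pH 8 buffer with 0.01% BSA. Reaction run 1 h with 16 μM Fluor de Lys substrate and stopped with TSA-containing developer. Fluorescence read at Ex 360/Em 460; IC50 from an occupancy equation with Hill coefficient, in duplicate.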

The target in another experiment is HDAC3/NCor2 (Homo sapiens (Human), UniProt O15379). The experiment in a line: HDAC3 inhibition, Fluor de Lys fluorescent enzyme assay. Particulars: 3 hours pre-incubation at room temp; 1.2 nM enzyme; 16 μM Fluor de Lys substrate; duplicate. Type of experiment: biochemical. The gist of the method:
as §1

Sequence of Recombinant HDAC1 (Q13547 whole entry): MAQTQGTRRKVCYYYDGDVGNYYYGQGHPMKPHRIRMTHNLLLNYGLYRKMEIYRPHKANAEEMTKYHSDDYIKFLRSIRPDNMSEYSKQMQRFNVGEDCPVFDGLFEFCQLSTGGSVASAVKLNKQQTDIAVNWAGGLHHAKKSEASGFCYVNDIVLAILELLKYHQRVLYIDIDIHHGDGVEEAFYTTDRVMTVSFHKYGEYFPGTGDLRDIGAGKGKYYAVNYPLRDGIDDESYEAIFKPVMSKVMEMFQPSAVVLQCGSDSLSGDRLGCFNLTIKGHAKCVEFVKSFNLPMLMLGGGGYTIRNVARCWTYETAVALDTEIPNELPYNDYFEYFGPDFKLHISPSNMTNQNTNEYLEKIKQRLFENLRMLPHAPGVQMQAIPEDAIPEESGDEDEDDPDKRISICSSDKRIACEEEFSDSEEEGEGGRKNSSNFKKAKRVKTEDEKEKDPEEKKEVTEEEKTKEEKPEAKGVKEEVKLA
Sequence of HDAC3/NCor2 (O15379 whole entry): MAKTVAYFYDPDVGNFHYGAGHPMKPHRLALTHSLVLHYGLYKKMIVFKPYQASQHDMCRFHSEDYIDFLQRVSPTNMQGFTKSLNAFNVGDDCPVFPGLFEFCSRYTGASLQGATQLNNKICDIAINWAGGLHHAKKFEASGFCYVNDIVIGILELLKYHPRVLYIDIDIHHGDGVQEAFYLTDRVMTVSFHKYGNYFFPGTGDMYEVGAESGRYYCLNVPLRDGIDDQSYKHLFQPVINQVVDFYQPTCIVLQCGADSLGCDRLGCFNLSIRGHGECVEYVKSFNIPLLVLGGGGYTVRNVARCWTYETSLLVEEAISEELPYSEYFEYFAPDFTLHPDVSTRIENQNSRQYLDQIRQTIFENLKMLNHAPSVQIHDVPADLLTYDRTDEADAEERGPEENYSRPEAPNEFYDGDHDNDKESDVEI
Sequence of HDAC3/NCor2 (Q9Y618 395-489 partner): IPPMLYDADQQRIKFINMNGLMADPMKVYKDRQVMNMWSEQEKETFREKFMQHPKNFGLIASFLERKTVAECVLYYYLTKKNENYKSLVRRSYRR

As to `N=[S@@](=O)(c1ccc(C(=O)Nc2cc(-c3ccc(F)cc3)ccc2N)cc1)c1cncnc1` (single isomer, unassigned) [Compound 181], the IC50 at Recombinant HDAC1 was below 100 nM; on HDAC3/NCor2, 500 to 2000 nM.
Regarding `CS(=N)(=O)Cc1ccc2sc(C(=O)Nc3cc(-c4ccc(F)cc4)ccc3N)cc2c1` (stereo not shown) [Compound 167, N-[2-amino-5-(4-fluorophenyl)phenyl]-5-[(methylsulfonimidoyl)methyl]benzothiophene-2-carboxamide], the IC50 is below 100 nM at Recombinant HDAC1 and 500 to 2000 nM on HDAC3/NCor2.
Take `N=S(=O)(c1ccc(C(=O)Nc2cc(-c3ccc(F)cc3)ccc2N)cc1)c1ccc(CO)nc1` (stereo not shown) [Compound 208]: the IC50 on Recombinant HDAC1 was below 100 nM; at HDAC3/NCor2, 500 to 2000 nM.
For `CS(=N)(=O)c1ccc(C(=O)Nc2cc(-c3ccc(C(N)=O)s3)ccc2N)cc1` (stereo not shown) [Compound 176, 5-[4-amino-3-[[4-(methylsulfonimidoyl)benzoyl]amino]phenyl]thiophene-2-carboxamide] the same measures were above 2000 nM and above 2000 nM.
Taken in the same sequence, the figures for `CS(=O)(=NC#N)c1ccc(C(=O)Nc2cc(-c3cccs3)ccc2N)cc1` (stereo not shown) [Compound 153, N-[2-amino-5-(2-thienyl)phenyl]-4-(N-cyano-S-methyl-sulfonimidoyl)benzamide] were below 100 nM and 500 to 2000 nM.
For `CS(=N)(=O)c1ccc(C(=O)Nc2cc(-c3ccc(F)c(F)c3)ccc2N)cc1` (stereo not shown) [Compound 147, N-[2-amino-5-(3,4-difluorophenyl)phenyl]-4-(methylsulfonimidoyl)benzamide] the same measures were 100 to 500 nM and above 2000 nM.
Regarding `CS(=N)(=O)c1ccc(C(=O)Nc2cc(-c3ccc(Cl)s3)ccc2N)cc1` (stereo not shown) [Compound 137, N-[2-amino-5-(5-chloro-2-thienyl)phenyl]-4-(methylsulfonimidoyl)benzamide], the IC50 at Recombinant HDAC1 was below 100 nM; against HDAC3/NCor2 it was 500 to 2000 nM.
For `CS(=N)(=O)c1ccc(C(=O)Nc2cc(-c3ccsc3)ccc2N)cc1` (stereo not shown) [Compound 249, N-[2-amino-5-(3-thienyl)phenyl]-4-(methylsulfonimidoyl)benzamide] the same measures were below 100 nM and 500 to 2000 nM.
Taken in the same sequence, the figures for `Nc1ccc(-c2ccc(F)cc2)cc1NC(=O)c1ccc([S@]2(=O)=N[C@@H](c3ccccc3)CC2)cc1` (racemic) [Compound 196, rac-N-(4-amino-4′-fluoro-[1,1′-biphenyl]-3-yl)-4-((1S,3R)-1-oxido-3-phenyl-4,5-dihydro-3H-1λ^6-isothiazol-1-yl)benzamide] were below 100 nM and above 2000 nM.
For `CS(=N)(=O)c1ccc(C(=O)Nc2cc(-c3ccc(F)s3)ccc2N)nn1` (stereo not shown) [Compound 152, N-[2-amino-5-(5-fluoro-2-thienyl)phenyl]-6-(methylsulfonimidoyl)pyridazine-3-carboxamide] the same measures were below 100 nM and 100 to 500 nM.
Turning to `Cc1nc[nH]c1S(=N)(=O)c1ccc(C(=O)Nc2cc(-c3ccc(F)cc3)ccc2N)cc1` (stereo not shown) [Compound 209, N-[2-amino-5-(4-fluorophenyl)phenyl]-4-[(4-methyl-1H-imidazol-5-yl)sulfonimidoyl]benzamide], the figures for the IC50 at Recombinant HDAC1 and on HDAC3/NCor2 were below 100 nM and 100 to 500 nM, respectively.
For `Cc1ncc(S(=N)(=O)c2ccc(C(=O)Nc3cc(-c4ccc(F)cc4)ccc3N)cc2)[nH]1` (stereo not shown) [Compound 217, N-[2-amino-5-(4-fluorophenyl)phenyl]-4-[(2-methyl-1H-imidazol-5-yl)sulfonimidoyl]benzamide] the same measures were below 100 nM and 100 to 500 nM.
As for `N=[S@](=O)(c1ccc(C(=O)Nc2cc(-c3cccs3)ccc2N)cc1)C1CC1` (single isomer, unassigned) [Compound 114], the IC50 on Recombinant HDAC1 was below 100 nM; at HDAC3/NCor2 it was 500 to 2000 nM.
For `N=S(=O)(c1ccc(C(=O)Nc2cc(-c3cccs3)ccc2N)cn1)C1CC1` (stereo not shown) [Compound 122, N-[2-amino-5-(2-thienyl)phenyl]-6-(cyclopropylsulfonimidoyl)pyridine-3-carboxamide] the same measures were below 100 nM and 500 to 2000 nM.
